# Source: paper PMC5224920, “Assessing the mechanism and therapeutic potential of modulators of the human Mediator complex-associated protein kinases” (eLife, 2016)
# Test system: 12 single or co-culture in vitro tissue models of primary cells
# Assay: Culture/co-culture cell model panel, extracellular biomarkers (DiscoveRx); as to CCL2/MCP-1: reference of the scale not given here; as to CD38: reference of the scale not given here; as to CD40: reference of the scale not given here; as to CD69: reference of the scale not given here; as to CXCL8/IL-8: reference of the scale not given here; as to CXCL9/MIG: reference of the scale not given here; as to IL-1alpha: reference of the scale not given here; as to PBMC Cytotoxicity: reference of the scale not given here; as to SRB: reference of the scale not given here
# Assay type: cell-based, human
structure (smiles),measurement,setting,value
Cc1n[nH]c2ncc(C(=O)N3CCC[C@H]3c3ccc(Cl)cc3)cc12 [CMPD4],CCL26/Eotaxin-3,"/TH2, 3.33E3 nM",-0.151
same,CD38,"/TH2, 3.33E3 nM",-0.023
same,CD40,"/TH2, 3.33E3 nM",-0.167
same,CD62E/E-Selectin,"/TH2, 3.33E3 nM",0.088
same,CD62P/P-selectin,"/TH2, 3.33E3 nM",-0.076
same,CD69,"/TH2, 3.33E3 nM",0.020
same,CD87/uPAR,"/TH2, 3.33E3 nM",-0.191
same,CD106/VCAM-1,"/TH2, 3.33E3 nM",0.009
same,CXCL8/IL-8,"/TH2, 3.33E3 nM",-0.082
same,CXCL9/MIG,"/TH2, 3.33E3 nM",-0.033
same,Collagen IV,"/TH2, 3.33E3 nM",0.00458
same,PBMC Cytotoxicity,"/TH2, 3.33E3 nM",-0.051
same,SRB,"/TH2, 3.33E3 nM",-0.131
same,sIL-17A,"/TH2, 3.33E3 nM",0.034
same,sIL-17F,"/TH2, 3.33E3 nM",0.022
same,CCL2/MCP-1,"/TH2, 3.70E2 nM",-0.111
same,CCL26/Eotaxin-3,"/TH2, 3.70E2 nM",-0.170
same,CD38,"/TH2, 3.70E2 nM",0.020
same,CD40,"/TH2, 3.70E2 nM",-0.169
same,CD62E/E-Selectin,"/TH2, 3.70E2 nM",0.039
same,CD62P/P-selectin,"/TH2, 3.70E2 nM",-0.043
same,CD69,"/TH2, 3.70E2 nM",0.055
same,CD87/uPAR,"/TH2, 3.70E2 nM",-0.203
same,CD106/VCAM-1,"/TH2, 3.70E2 nM",0.023
same,CXCL8/IL-8,"/TH2, 3.70E2 nM",-0.040
same,CXCL9/MIG,"/TH2, 3.70E2 nM",-0.019
same,Collagen IV,"/TH2, 3.70E2 nM",-0.00656
same,PBMC Cytotoxicity,"/TH2, 3.70E2 nM",0.007
same,SRB,"/TH2, 3.70E2 nM",-0.083
same,sIL-17A,"/TH2, 3.70E2 nM",0.040
same,sIL-17F,"/TH2, 3.70E2 nM",0.00074
same,CCL2/MCP-1,"/TH2, 4.12E1 nM",-0.080
same,CCL26/Eotaxin-3,"/TH2, 4.12E1 nM",-0.157
same,CD38,"/TH2, 4.12E1 nM",0.006
same,CD40,"/TH2, 4.12E1 nM",-0.170
same,CD62E/E-Selectin,"/TH2, 4.12E1 nM",0.069
same,CD62P/P-selectin,"/TH2, 4.12E1 nM",-0.051
same,CD69,"/TH2, 4.12E1 nM",0.028
same,CD87/uPAR,"/TH2, 4.12E1 nM",-0.181
same,CD106/VCAM-1,"/TH2, 4.12E1 nM",0.009
same,CXCL8/IL-8,"/TH2, 4.12E1 nM",-0.049
same,CXCL9/MIG,"/TH2, 4.12E1 nM",-0.018
same,Collagen IV,"/TH2, 4.12E1 nM",-0.002
same,PBMC Cytotoxicity,"/TH2, 4.12E1 nM",-0.057
same,SRB,"/TH2, 4.12E1 nM",-0.051
same,sIL-17A,"/TH2, 4.12E1 nM",0.042
same,sIL-17F,"/TH2, 4.12E1 nM",0.053
same,CCL2/MCP-1,"/TH2, 4.57E0 nM",-0.000419
same,CCL26/Eotaxin-3,"/TH2, 4.57E0 nM",-0.103
same,CD38,"/TH2, 4.57E0 nM",-0.00453
same,CD40,"/TH2, 4.57E0 nM",-0.110
same,CD62E/E-Selectin,"/TH2, 4.57E0 nM",0.029
same,CD62P/P-selectin,"/TH2, 4.57E0 nM",0.013
same,CD69,"/TH2, 4.57E0 nM",0.026
same,CD87/uPAR,"/TH2, 4.57E0 nM",-0.100
same,CD106/VCAM-1,"/TH2, 4.57E0 nM",0.017
same,CXCL8/IL-8,"/TH2, 4.57E0 nM",0.027
same,CXCL9/MIG,"/TH2, 4.57E0 nM",0.021
same,Collagen IV,"/TH2, 4.57E0 nM",0.011
same,PBMC Cytotoxicity,"/TH2, 4.57E0 nM",-0.009
same,SRB,"/TH2, 4.57E0 nM",-0.014
same,sIL-17A,"/TH2, 4.57E0 nM",0.056
same,sIL-17F,"/TH2, 4.57E0 nM",0.044
same,CCL26/Eotaxin-3,"BENo, 1.00E4 nM",0.048
same,CD54/ICAM-1,"BENo, 1.00E4 nM",-0.115
same,CD87/uPAR,"BENo, 1.00E4 nM",-0.014
same,CXCL8/IL-8,"BENo, 1.00E4 nM",-0.033
same,CXCL9/MIG,"BENo, 1.00E4 nM",0.082
same,CXCL10/IP-10,"BENo, 1.00E4 nM",-0.00135
same,CXCL11/I-TAC,"BENo, 1.00E4 nM",-0.038
same,EGFR,"BENo, 1.00E4 nM",0.006
same,HLA-DR,"BENo, 1.00E4 nM",-0.032
same,IL-1alpha,"BENo, 1.00E4 nM",-0.034
same,Keratin 8/18,"BENo, 1.00E4 nM",-0.032
same,MMP-1,"BENo, 1.00E4 nM",0.000562
same,MMP-9,"BENo, 1.00E4 nM",-0.051
same,PAI-I,"BENo, 1.00E4 nM",-0.097
same,SRB,"BENo, 1.00E4 nM",-0.020
same,tPA,"BENo, 1.00E4 nM",-0.115
same,uPA,"BENo, 1.00E4 nM",-0.041
same,CCL26/Eotaxin-3,"BENo, 1.11E3 nM",-0.033
same,CD54/ICAM-1,"BENo, 1.11E3 nM",-0.081
same,CD87/uPAR,"BENo, 1.11E3 nM",-0.049
same,CXCL8/IL-8,"BENo, 1.11E3 nM",-0.031
same,CXCL9/MIG,"BENo, 1.11E3 nM",-0.00357
same,CXCL10/IP-10,"BENo, 1.11E3 nM",-0.058
same,CXCL11/I-TAC,"BENo, 1.11E3 nM",-0.048
same,EGFR,"BENo, 1.11E3 nM",0.007
same,HLA-DR,"BENo, 1.11E3 nM",0.036
same,IL-1alpha,"BENo, 1.11E3 nM",-0.027
same,Keratin 8/18,"BENo, 1.11E3 nM",3.05e-5
same,MMP-1,"BENo, 1.11E3 nM",-0.038
same,MMP-9,"BENo, 1.11E3 nM",-0.005
same,PAI-I,"BENo, 1.11E3 nM",-0.107
same,SRB,"BENo, 1.11E3 nM",0.008
same,tPA,"BENo, 1.11E3 nM",-0.047
same,uPA,"BENo, 1.11E3 nM",-0.007
same,CCL26/Eotaxin-3,"BENo, 1.23E2 nM",-0.013
same,CD54/ICAM-1,"BENo, 1.23E2 nM",-0.092
same,CD87/uPAR,"BENo, 1.23E2 nM",-0.00225
same,CXCL8/IL-8,"BENo, 1.23E2 nM",-0.028
same,CXCL9/MIG,"BENo, 1.23E2 nM",-0.018
same,CXCL10/IP-10,"BENo, 1.23E2 nM",-0.010
same,CXCL11/I-TAC,"BENo, 1.23E2 nM",-0.021
same,EGFR,"BENo, 1.23E2 nM",0.013
same,HLA-DR,"BENo, 1.23E2 nM",0.00213
same,IL-1alpha,"BENo, 1.23E2 nM",0.008
same,Keratin 8/18,"BENo, 1.23E2 nM",-0.021
same,MMP-1,"BENo, 1.23E2 nM",-0.035
same,MMP-9,"BENo, 1.23E2 nM",-0.086
same,PAI-I,"BENo, 1.23E2 nM",-0.061
same,SRB,"BENo, 1.23E2 nM",0.015
same,tPA,"BENo, 1.23E2 nM",-0.029
same,uPA,"BENo, 1.23E2 nM",-0.020
same,CCL26/Eotaxin-3,"BENo, 1.37E1 nM",0.037
same,CD54/ICAM-1,"BENo, 1.37E1 nM",-0.062
same,CD87/uPAR,"BENo, 1.37E1 nM",0.021
same,CXCL8/IL-8,"BENo, 1.37E1 nM",-0.025
same,CXCL9/MIG,"BENo, 1.37E1 nM",-0.110
same,CXCL10/IP-10,"BENo, 1.37E1 nM",-0.013
same,CXCL11/I-TAC,"BENo, 1.37E1 nM",-0.064
same,EGFR,"BENo, 1.37E1 nM",0.011
same,HLA-DR,"BENo, 1.37E1 nM",0.054
same,IL-1alpha,"BENo, 1.37E1 nM",-0.002
same,Keratin 8/18,"BENo, 1.37E1 nM",-0.018
same,MMP-1,"BENo, 1.37E1 nM",-0.037
same,MMP-9,"BENo, 1.37E1 nM",-0.035
same,PAI-I,"BENo, 1.37E1 nM",-0.045
same,SRB,"BENo, 1.37E1 nM",0.023
same,tPA,"BENo, 1.37E1 nM",0.009
same,uPA,"BENo, 1.37E1 nM",-0.014
same,CCL26/Eotaxin-3,"BENo, 3.33E3 nM",-0.026
same,CD54/ICAM-1,"BENo, 3.33E3 nM",-0.069
same,CD87/uPAR,"BENo, 3.33E3 nM",-0.045
same,CXCL8/IL-8,"BENo, 3.33E3 nM",-0.035
same,CXCL9/MIG,"BENo, 3.33E3 nM",-0.00357
same,CXCL10/IP-10,"BENo, 3.33E3 nM",-0.006
same,CXCL11/I-TAC,"BENo, 3.33E3 nM",-0.044
same,EGFR,"BENo, 3.33E3 nM",0.00248
same,HLA-DR,"BENo, 3.33E3 nM",0.016
same,IL-1alpha,"BENo, 3.33E3 nM",-0.032
same,Keratin 8/18,"BENo, 3.33E3 nM",-0.033
same,MMP-1,"BENo, 3.33E3 nM",-0.028
same,MMP-9,"BENo, 3.33E3 nM",-0.009
same,PAI-I,"BENo, 3.33E3 nM",-0.091
same,SRB,"BENo, 3.33E3 nM",-0.011
same,tPA,"BENo, 3.33E3 nM",-0.052
same,uPA,"BENo, 3.33E3 nM",-0.052
same,CCL26/Eotaxin-3,"BENo, 3.70E2 nM",-0.028
same,CD54/ICAM-1,"BENo, 3.70E2 nM",-0.092
same,CD87/uPAR,"BENo, 3.70E2 nM",-0.025
same,CXCL8/IL-8,"BENo, 3.70E2 nM",-0.027
same,CXCL9/MIG,"BENo, 3.70E2 nM",-0.00262
same,CXCL10/IP-10,"BENo, 3.70E2 nM",-0.017
same,CXCL11/I-TAC,"BENo, 3.70E2 nM",-0.036
same,EGFR,"BENo, 3.70E2 nM",-0.014
same,HLA-DR,"BENo, 3.70E2 nM",-0.009
same,IL-1alpha,"BENo, 3.70E2 nM",-0.009
same,Keratin 8/18,"BENo, 3.70E2 nM",-0.013
same,MMP-1,"BENo, 3.70E2 nM",-0.038
same,MMP-9,"BENo, 3.70E2 nM",-0.012
same,PAI-I,"BENo, 3.70E2 nM",-0.072
same,SRB,"BENo, 3.70E2 nM",0.008
